Laboratory results from patent US8785470B2, “Heterocyclic compounds and uses thereof” (Infinity Pharmaceuticals, Inc., priority 2011, dated 2014).

Key:
PI3Kβ = biological target: T1, PI3Kβ (Homo sapiens, UniProt P42338); experiment: PI3-Kinase HTRF assay, PI3Kβ; assay type: biochemical; details: bins Greater than 10 μM and Greater than 1 μM to 10 μM; 10 μM ATP, PIP2 at 10 μM
T1 construct: purchased Millipore Corporation 14-603-K
Text: (§1) A PI3-Kinase HTRF® assay kit (cat No. 33-016) purchased from Millipore Corporation was used to screen compounds provided herein. This assay used specific, high affinity binding of the GRPI pleckstrin homology (PH) domain to PIP3, the product of a Class 1A or 1B PI3 Kinase acting on its physiological substrate PIP2. During the detection phase of the assay, a complex was generated between the GST-tagged PH domain and biotinylated short chain PIP3. The biotinylated PIP3 and the GST-tagged PH domain recruited fluorophores (Streptavidin-Allophycocyanin and Europium-labeled anti-GST respectively) to form the fluorescence resonance energy transfer (FRET) architecture, generating a stable time-resolved FRET signal. The FRET complex was disrupted in a competitive manner by non-biotinylated PIP3, a product formed in the PI3 Kinase assay.
(§2) PI3 Kinase α, β, γ and δ activity was assayed using the PI3 Kinase HTRF® assay kit (catalogue No. 33-016) purchased from Millipore Corporation. Purified recombinant PI3Kα (catalogue No. 14-602-K), PI3Kβ (catalogue No. 14-603-K), PI3Kγ (catalogue No. 14-558-K) and PI3Kδ (catalogue No. 14-604-K) were obtained from Millipore Corporation. Purified recombinant PI3K enzyme was used to catalyze the phosphorylation of phosphatidylinositol 4,5-bisphosphate (PIP2 at 10 μM) to phosphatidylinositol 3,4,5-trisphosphate (PIP3) in the presence of 10 μM ATP. The assay was carried out in 384-well format and detected using a Perkin Elmer EnVision Xcite Multilabel Reader. Emission ratios were converted into percent inhibitions and imported into GraphPad Prism software. The concentration necessary to achieve inhibition of enzyme activity by 50% (IC50) was calculated using concentrations ranging from 20 μM to 0.1 nM (12-point curve). IC50 values were determined using a nonlinear regression model available in GraphPad Prism 5. […]

Balb/c splenic B cells = experiment: B cell activation and proliferation assay; assay type: cell-based; details: Mus musculus, column bins 1 μM to 100 nM (given as 100-1000) and Less than 100 nM, read-out: B cell proliferation EC50
Protocol: The ability of one or more subject compounds to inhibit B cell activation and proliferation is determined according to standard procedures known in the art. For example, an in vitro cellular proliferation assay is established that measures the metabolic activity of live cells. The assay is performed in a 96 well microtiter plate using Alamar Blue reduction. Balb/c splenic B cells are purified over a Ficoll-Paque™ PLUS gradient followed by magnetic cell separation using a MACS B cell Isolation Kit (Miletenyi). Cells are plated in 90 μl at 50.000 cells/well in B Cell Media (RPMI+10% FBS+Penn/Strep+50 μME5 mM HEPES). A compound provided herein is diluted in B Cell Media and added in a 10 μl volume. Plates are incubated for 30 min at 37° C. and 5% CO2 (0.2% DMSO final concentration). A 50 μl B cell stimulation cocktail is then added containing either 10 μg/ml LPS or 5 μg/ml F(ab′)2 Donkey anti-mouse IgM plus 2 ng/ml recombinant mouse IL4 in B Cell Media. Plates are incubated for 72 hours at 37° C. and 5% CO2. A volume of 15 μL of Alamar Blue reagent is added to each well and plates are incubated for 5 hours at 37° C. and 5% CO2. Alamar Blue fluoresce is read at 560Ex/590Em, and IC50 or EC50 values are calculated using GraphPad Prism 5.

PI3Kα = biological target: T2, PI3Kα (Homo sapiens, UniProt P42336); experiment: PI3-Kinase HTRF assay, PI3Kα; assay type: biochemical; details: bins Greater than 10 μM and Greater than 1 μM to 10 μM; 10 μM ATP, PIP2 at 10 μM; read-out: IC50 P13Kα
T2 construct: purchased Millipore Corporation 14-602-K
Text: as §1, §2

T1 sequence (P42338 whole entry): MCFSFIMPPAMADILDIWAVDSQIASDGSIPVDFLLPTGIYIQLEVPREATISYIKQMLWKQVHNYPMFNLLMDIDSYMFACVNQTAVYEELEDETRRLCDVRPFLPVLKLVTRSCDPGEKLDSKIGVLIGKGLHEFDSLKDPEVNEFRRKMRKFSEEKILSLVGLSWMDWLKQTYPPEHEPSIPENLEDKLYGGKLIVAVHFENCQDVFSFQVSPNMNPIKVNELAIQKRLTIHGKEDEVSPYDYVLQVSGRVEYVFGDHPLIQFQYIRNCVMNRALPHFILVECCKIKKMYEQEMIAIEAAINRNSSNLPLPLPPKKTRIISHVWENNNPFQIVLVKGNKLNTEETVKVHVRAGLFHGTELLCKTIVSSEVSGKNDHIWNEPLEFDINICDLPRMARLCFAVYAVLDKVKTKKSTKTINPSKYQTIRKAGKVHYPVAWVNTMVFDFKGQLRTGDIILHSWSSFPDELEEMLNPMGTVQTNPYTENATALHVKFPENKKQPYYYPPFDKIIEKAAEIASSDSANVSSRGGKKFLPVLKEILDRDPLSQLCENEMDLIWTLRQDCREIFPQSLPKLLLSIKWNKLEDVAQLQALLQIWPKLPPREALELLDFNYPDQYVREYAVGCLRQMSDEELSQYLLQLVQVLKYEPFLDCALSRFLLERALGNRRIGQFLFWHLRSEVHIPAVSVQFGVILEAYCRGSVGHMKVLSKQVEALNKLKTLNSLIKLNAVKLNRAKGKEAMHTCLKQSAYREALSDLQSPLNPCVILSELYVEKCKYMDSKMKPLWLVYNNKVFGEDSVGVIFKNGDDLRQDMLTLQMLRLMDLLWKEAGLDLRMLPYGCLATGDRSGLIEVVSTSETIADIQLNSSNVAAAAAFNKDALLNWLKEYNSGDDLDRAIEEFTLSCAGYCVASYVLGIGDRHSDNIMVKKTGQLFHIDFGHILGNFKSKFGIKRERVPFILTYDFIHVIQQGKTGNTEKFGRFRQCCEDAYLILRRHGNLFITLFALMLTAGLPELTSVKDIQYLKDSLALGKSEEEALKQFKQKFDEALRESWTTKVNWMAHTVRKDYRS
T1 sequence (P27986 whole entry partner): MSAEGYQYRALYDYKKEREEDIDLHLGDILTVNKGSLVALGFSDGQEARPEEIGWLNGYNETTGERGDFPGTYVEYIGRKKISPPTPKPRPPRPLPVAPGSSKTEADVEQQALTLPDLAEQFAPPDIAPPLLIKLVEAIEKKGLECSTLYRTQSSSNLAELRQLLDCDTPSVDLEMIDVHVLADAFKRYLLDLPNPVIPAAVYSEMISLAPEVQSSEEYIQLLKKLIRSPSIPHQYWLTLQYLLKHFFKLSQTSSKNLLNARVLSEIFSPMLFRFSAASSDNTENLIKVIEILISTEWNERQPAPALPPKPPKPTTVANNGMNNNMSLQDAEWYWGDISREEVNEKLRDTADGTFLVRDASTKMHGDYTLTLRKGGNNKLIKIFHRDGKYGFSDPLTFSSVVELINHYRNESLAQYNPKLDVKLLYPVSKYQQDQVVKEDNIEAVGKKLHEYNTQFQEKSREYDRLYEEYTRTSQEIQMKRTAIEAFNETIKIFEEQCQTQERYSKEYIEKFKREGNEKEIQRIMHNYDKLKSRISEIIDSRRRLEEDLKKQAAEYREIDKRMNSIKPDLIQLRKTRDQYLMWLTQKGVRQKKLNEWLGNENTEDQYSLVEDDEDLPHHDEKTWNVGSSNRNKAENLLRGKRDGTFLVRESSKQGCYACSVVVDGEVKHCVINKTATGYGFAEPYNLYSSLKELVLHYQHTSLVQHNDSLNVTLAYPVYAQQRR
T2 sequence (P42336 whole entry): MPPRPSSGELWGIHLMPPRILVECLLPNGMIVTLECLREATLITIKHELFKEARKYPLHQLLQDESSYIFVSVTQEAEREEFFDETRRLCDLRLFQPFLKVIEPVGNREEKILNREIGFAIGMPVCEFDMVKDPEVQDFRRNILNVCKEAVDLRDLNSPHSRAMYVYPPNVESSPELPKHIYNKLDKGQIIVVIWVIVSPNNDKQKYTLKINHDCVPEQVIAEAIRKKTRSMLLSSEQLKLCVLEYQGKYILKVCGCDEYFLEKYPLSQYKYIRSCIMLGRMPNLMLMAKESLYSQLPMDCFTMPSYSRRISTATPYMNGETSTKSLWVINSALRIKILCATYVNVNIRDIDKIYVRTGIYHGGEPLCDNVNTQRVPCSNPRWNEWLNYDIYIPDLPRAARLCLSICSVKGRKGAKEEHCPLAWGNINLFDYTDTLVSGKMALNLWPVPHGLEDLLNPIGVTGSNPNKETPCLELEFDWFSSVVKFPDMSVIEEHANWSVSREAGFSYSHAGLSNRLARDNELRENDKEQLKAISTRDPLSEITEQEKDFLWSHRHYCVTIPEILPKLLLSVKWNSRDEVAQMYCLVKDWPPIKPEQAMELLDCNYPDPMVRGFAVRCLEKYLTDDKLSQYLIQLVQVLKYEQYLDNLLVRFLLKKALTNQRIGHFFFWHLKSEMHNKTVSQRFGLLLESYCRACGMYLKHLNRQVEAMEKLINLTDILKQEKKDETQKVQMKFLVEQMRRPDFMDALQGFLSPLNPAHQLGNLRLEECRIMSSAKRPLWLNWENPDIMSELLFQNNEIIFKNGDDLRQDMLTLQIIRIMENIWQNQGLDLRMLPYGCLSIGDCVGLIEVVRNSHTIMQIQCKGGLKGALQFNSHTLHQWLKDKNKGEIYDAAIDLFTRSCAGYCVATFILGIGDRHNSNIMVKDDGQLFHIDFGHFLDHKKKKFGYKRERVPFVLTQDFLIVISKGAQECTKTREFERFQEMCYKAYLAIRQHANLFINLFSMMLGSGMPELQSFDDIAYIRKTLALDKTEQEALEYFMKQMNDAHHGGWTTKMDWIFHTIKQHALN
T2 sequence (P27986 whole entry partner): as the sequence (P27986 whole entry partner) above

Row | Structure (SMILES) | IC50 (PI3Kβ) [nM] | IC50 (PI3Kα) [nM] | EC50 (Balb/c splenic B cells) [nM]
1 | Cc1nc(-c2cnc(N)nc2N[C@@H](C)c2cc3cccc(Cl)c3c(=O)n2-c2ccccc2)sc1C [Compound 366] | 1000 to 10000 | – | –
2 | C[C@H](Nc1nc(N)ncc1C#N)c1cc2cccc(-c3cnc4ccccc4c3)c2c(=O)n1-c1cccc(F)c1 [Compound 23] | 1000 to 10000 | – | < 100
3 | C[C@H](Nc1nc(N)ncc1C#N)c1cc2cccc(Cl)c2c(=O)n1-c1ccc(OC(F)(F)F)cc1 [Compound 210] | 1000 to 10000 | – | –
4 | C[C@H](Nc1nc(N)ncc1C#N)c1cc2cccc(-c3ccc(=O)n(C4CCOCC4)c3)c2c(=O)n1-c1ccccc1 [Compound 235] | 1000 to 10000 | – | –
5 | C[C@H](Nc1nc(N)ncc1C#N)c1cc2cccc(Cl)c2c(=O)n1-c1ccc2c(c1)OCO2 [Compound 261] | 1000 to 10000 | – | –
6 | C[C@H](Nc1nc(N)ncc1-c1ccsc1)c1cc2cccc(Cl)c2c(=O)n1-c1ccccc1 [Compound 373] | 1000 to 10000 | – | –
7 | C[C@H](Nc1nc(N)ncc1C#N)c1cc2cccc(Cl)c2c(=O)n1-c1c(F)cc(F)cc1F [Compound 258] | 1000 to 10000 | – | –
8 | Cc1csc(-c2cnc(N)nc2N[C@@H](C)c2cc3cccc(Cl)c3c(=O)n2-c2ccccc2)n1 [Compound 136] | – | 1000 to 10000 | < 100
9 | CC#Cc1cccc2cc([C@H](C)Nc3nc(N)ncc3C#N)n(-c3ccccc3)c(=O)c12 [Compound 222] | – | 1000 to 10000 | < 100
10 | Cc1cnc(-c2cnc(N)nc2N[C@@H](C)c2cc3cccc(Cl)c3c(=O)n2-c2ccccc2)s1 [Compound 368] | 1000 to 10000 | – | –
11 | C[C@H](Nc1nc(N)ncc1-c1ccc(O)cc1)c1cc2cccc(Cl)c2c(=O)n1-c1ccccc1 [Compound 436] | 1000 to 10000 | – | –
12 | Cc1cccc2cc([C@H](C)Nc3nc(N)ncc3C#N)n(-c3cccc(F)c3)c(=O)c12 [Compound 15] | – | 1000 to 10000 | < 100
13 | C[C@H](Nc1nc(N)ncc1C#N)c1cc2cccc(Cl)c2c(=O)n1-c1cscn1 [Compound 249] | – | 1000 to 10000 | < 100
14 | CCOc1nc(-c2cnc(N)nc2N[C@@H](C)c2cc3cccc(Cl)c3c(=O)n2-c2ccccc2)cs1 [Compound 369] | – | 1000 to 10000 | < 100
15 | C[C@H](Nc1nc(N)ncc1C#N)c1cc2cccc(Cl)c2c(=O)n1-c1ccon1 [Compound 332] | – | 1000 to 10000 | < 100
16 | C[C@H](Nc1nc(N)ncc1C#N)c1cc2cccc(Cl)c2c(=O)n1Cc1ccccc1 [Compound 303] | 1000 to 10000 | – | –
17 | C[C@H](Nc1nc(N)ncc1C#N)c1cc2cccc(-c3ccc(F)cc3)c2c(=O)n1-c1ccccc1 [Compound 37] | 1000 to 10000 | – | –
18 | C[C@H](Nc1nc(N)ncc1C#N)c1nc2cccc(Cl)c2c(=O)n1-c1ccccc1 [Compound 59, (S)-2-amino-4-((1-(5-chloro-4-oxo-3-phenyl-3,4-dihydroquinazolin-2-yl)ethyl)amino)pyrimidine-5-carbonitrile] | – | 1000 to 10000 | < 100
19 | C[C@H](Nc1nc(N)ncc1-c1ccccn1)c1cc2cccc(Cl)c2c(=O)n1-c1ccccc1 [Compound 375] | 1000 to 10000 | – | –
20 | C[C@H](Nc1nc(N)ncc1-c1cscn1)c1cc2cccc(Cl)c2c(=O)n1-c1ccccc1 [Compound 360] | – | 1000 to 10000 | < 100
21 | C[C@H](Nc1nc(N)ncc1-c1ccncc1)c1cc2cccc(Cl)c2c(=O)n1-c1ccccc1 [Compound 168] | 1000 to 10000 | – | –
22 | C#Cc1cnc(N)nc1N[C@@H](C)c1cc2cccc(Cl)c2c(=O)n1-c1ccccc1 [Compound 91] | – | 1000 to 10000 | < 100
23 | C[C@H](Nc1nc(N)ncc1C#N)c1cc2cccc(Cl)c2c(=O)n1-c1cccc(F)c1F [Compound 282] | 1000 to 10000 | – | –
24 | COc1ccc(-n2c([C@H](C)Nc3nc(N)ncc3C#N)cc3cccc(Cl)c3c2=O)cc1 [Compound 214] | 1000 to 10000 | – | –
25 | C[C@H](Nc1nc(N)ncc1C#N)c1cc2cccc(Cl)c2c(=O)n1-c1ccc(Cl)cc1 [Compound 217] | – | 1000 to 10000 | < 100
26 | C[C@H](Nc1nc(N)ncc1C#N)c1cc2cccc(O)c2c(=O)n1-c1ccccc1 [Compound 145] | 1000 to 10000 | – | –
27 | C[C@H](Nc1nc(N)ncc1-c1ncco1)c1cc2cccc(Cl)c2c(=O)n1-c1ccccc1 [Compound 365] | – | 1000 to 10000 | < 100
28 | CC(C)n1c([C@H](C)Nc2nc(N)ncc2C#N)cc2cccc(Cl)c2c1=O [Compound 325] | – | 1000 to 10000 | < 100

More lines, main results first:

Row | IC50 (PI3Kβ) [nM] | IC50 (PI3Kα) [nM] | Structure (SMILES) | EC50 (Balb/c splenic B cells) [nM]
29 | 1000 to 10000 | – | COc1cccc(-c2cccc3cc([C@H](C)Nc4nc(N)ncc4C#N)n(-c4ccccc4)c(=O)c23)c1 [Compound 36] | –
30 | 1000 to 10000 | – | COc1cc(-c2cccc3cc([C@H](C)Nc4nc(N)ncc4C#N)n(-c4ccccc4)c(=O)c23)cnc1OC [Compound 192] | < 100
31 | 1000 to 10000 | – | COc1cncc(-c2cccc3cc([C@H](C)Nc4nc(N)ncc4C(N)=O)n(-c4ccccc4)c(=O)c23)c1 [Compound 10, 2-amino-4-((S)-1-(8-(5-methoxypyridin-3-yl)-1-oxo-2-phenyl-1,2-dihydroisoquinolin-3-yl)ethylamino)pyrimidine-5-carboxamide] | < 100
32 | 1000 to 10000 | – | C[C@H](Nc1nc(N)ncc1-c1cnn(C)c1)c1cc2cccc(Cl)c2c(=O)n1-c1ccccc1 [Compound 376] | –
33 | – | 1000 to 10000 | COc1cc(-c2cccc3cc([C@H](C)Nc4nc(N)ncc4[N+](=O)[O-])n(-c4ccccc4)c(=O)c23)ccn1 [Compound 177] | < 100
34 | – | 1000 to 10000 | C[C@H](Nc1nc(N)ncc1C#N)c1cc2cccc(-c3ccnnc3)c2c(=O)n1-c1ccccc1 [Compound 57] | < 100
35 | – | 1000 to 10000 | Cc1ncc(-c2cccc3cc([C@H](C)Nc4nc(N)ncc4C#N)n(-c4ccccc4)c(=O)c23)cn1 [Compound 55] | < 100
36 | – | 1000 to 10000 | C[C@H](Nc1nc(N)ncc1C(=O)N(C)C)c1cc2cccc(-c3cnn(C)c3)c2c(=O)n1-c1ccccc1 [Compound 203] | < 100
37 | – | 1000 to 10000 | C[C@H](Nc1nc(N)ncc1C#N)c1cc2cccc(-c3ccc(O)nc3)c2c(=O)n1-c1ccccc1 [Compound 156] | < 100
38 | 1000 to 10000 | – | CC(C)Oc1cncc(-c2cccc3cc([C@H](C)Nc4nc(N)ncc4C#N)n(-c4ccccc4)c(=O)c23)c1 [Compound 53] | –
39 | 1000 to 10000 | – | C[C@H](Nc1nc(N)ncc1C#N)c1cc2cccc(-c3cccc(N(C)C)c3)c2c(=O)n1-c1ccccc1 [Compound 40] | –
40 | – | 1000 to 10000 | Cc1ccc(-c2cccc3cc([C@H](C)Nc4nc(N)ncc4C#N)n(-c4ccccc4)c(=O)c23)cn1 [Compound 41] | < 100
41 | – | 1000 to 10000 | C[C@H](Nc1nc(N)ncc1C(=O)N(C)C)c1cc2cccc(Cl)c2c(=O)n1-c1ccccc1 [Compound 199] | < 100
42 | – | 1000 to 10000 | C[C@H](Nc1nc(N)ncc1-c1cncs1)c1cc2cccc(Cl)c2c(=O)n1-c1ccccc1 [Compound 361] | < 100
43 | – | 1000 to 10000 | COc1cc(-c2cccc3cc([C@H](C)Nc4nc(N)ncc4-c4ccncc4)n(-c4ccccc4)c(=O)c23)ccn1 [Compound 169] | < 100
44 | – | 1000 to 10000 | C[C@H](Nc1nc(N)ncc1C#N)c1cc2cccc(-c3cccc(S(C)(=O)=O)c3)c2c(=O)n1-c1ccccc1 [Compound 164] | < 100
45 | 1000 to 10000 | – | C[C@H](Nc1nc(N)ncc1C#N)c1cc2cccc(-c3cccc(Cl)c3)c2c(=O)n1-c1ccccc1 [Compound 34] | –
46 | 1000 to 10000 | – | Cc1cccc(-c2cccc3cc([C@H](C)Nc4nc(N)ncc4C#N)n(-c4ccccc4)c(=O)c23)c1 [Compound 46] | –
47 | – | 1000 to 10000 | Cc1cc(-c2cccc3cc([C@H](C)Nc4nc(N)ncc4C#N)n(-c4ccccc4)c(=O)c23)cn(C)c1=O [Compound 231] | < 100
